Data reported in patent US20240124439A1, “Pyrido[2,3-D]Imidazole Derivatives and Their Use As Inhibitors of ITK for the Treatment of Skin Disease” (Pfizer Inc., priority 2020, published 2024).
One block for each compound: values may come before it.

What was measured:
[1] = molecular target: IL-2-Inducible T-Cell Kinase (ITK) (Homo sapiens (Human), UniProt Q08881); assay: ITK enzyme assay (IL-2-inducible T-cell kinase activity); type: biochemical; conditions: geometric mean of count n
Experimental: ITK activity was determined by measuring the effect of a test compound in an ITK enzyme assay.
1.0 M HEPES Buffer pH 7.5 solution was prepared as follows: 238.3 g HEPES free acid (Sigma) and 800 mL of water were combined, and the mixture was stirred until complete dissolution. The pH was adjusted to 7.5 via titration with 5N NaOH and the volume adjusted to 1000 mL. The solution was filtered and sterilized.
ITK assay buffer was prepared as follows: 50 mL of HPLC-grade water was treated with 2 mL of 1.0 M HEPES Buffer, 500 μL of 2% Gelatin (Sigma), 1.0 mL of aqueous MgCl2 solution (1.0 M), and 1.0 mL of aqueous glutathione solution (0.5 M), and the solution was mixed. The solution was brought to 99 mL in a graduated cylinder by addition of water and sterilized through a 0.2 μm filter. 0.1 mL of Brij-35™ Surfact-Amps™ Detergent Solution (10% w/v aqueous solution, ThermoFisher) and 1.0 mL of ATP (Teknova,100 mM) were added and the solution was mixed.
Preparation of 1.33× ITK enzyme solution was as follows: 49.99 mL of ITK assay buffer was treated with 4.1 μL of ITK enzyme (ITK FL (N-Flag and C-His tagged, […]) Lake Pharma, 0.25 mg/ml in a buffer containing 25 mM Tris pH 7.8, 150 mM NaCl, 10% glycerol and 2 mM TCEP) and the mixture was gently agitated. The resulting solution was stored on ice. 30 Minutes prior to use, the enzyme solution was removed from ice and equilibrated to RT by incubation in a RT water bath.
Preparation of 4× ITK substrate solution was as follows: 50 mL of ITK assay buffer was treated with 100 μL of BTK peptide (China Peptide Company, 2 mM stock solution in DMSO). The tube was capped, mixed by gently inverting the tube, and then stored on ice. 30 Minutes prior to use, the substrate solution was removed from ice and equilibrated to RT by incubation in a RT water bath.
At the time of assay, 7.5 μL of the 1.33× ITK enzyme solution was added to plate wells containing 0.1 μL of varying concentrations of test compound in DMSO. The plate was incubated 30 min at RT. The plate wells were each treated with 2.5 uL of the 4× ITK substrate solution and the plate was sealed (TopSeal™, Perkin Elmer). The plate was spun at 1000 rpm for 30 sec and then incubated for 60 min at RT. The seal was removed, and each well was treated with 10 μL of Stop/Detect Buffer (20 mM HEPES pH 7.5, 0.01% gelatin, 1 nM LANCE PT66 (Perkin Elmer), 16.5 μg/ml Surelight APC (Perkin Elmer), 10 mM EDTA, 250 mM NaCl). The plate was again covered and was spun at 1000 rpm for […]. The plate was allowed to incubate overnight at RT and in a closed carrier to reduce dehydration. The seal was removed, and the fluorescence was read with a plate reader with an excitation wavelength of […]. The concentrations and resulting effect values for the tested compound were plotted and the concentration of compound required for 50% effect (IC50) was determined with the four-parameter logistic dose response equation.

[2] = test system: activated CD4+ human T-cells (IL-2); assay: IL-2 inhibition in supernatants from activated CD4+ human T-cells (cisbio HTRF); type: cell-based; conditions: T-cell; CD3/CD28-activated CD4+ human T cells, ImmunoCult stimulation 20 to 24 hrs; geometric mean of count n
Experimental: IL-2 inhibition activity in supernatants from activated CD4+ human T-cells was determined by measuring the effect of a test compound on the activity using the cisbio HTRF™ technology.
Human CD4+ T cells were activated with CD3/CD28 for 3 days and expanded for an additional 4-6 days (7 to 9 days total). On day 0, frozen CD4+ T cells were thawed, treated with CD3/CD28 Dynabeads, and incubated at 37° C./5% CO2. On day 3, the beads were removed, and the cells were diluted to 5×10^5 cells/cm^2, placed in G-Rex10 flask, and incubated at 37° C./5% CO2. On day 7 to day 9 the cells were removed from the G-Rex flasks, counted and diluted back to 1×10^6 cells/ml in standard tissue culture flask.
The expanded CD4+ T-cells were centrifuged at 300×g for 10 minutes and resuspended to 0.5 million cells per ml (30,000 cells/well). 60 μl of CD4+ T cells were added per well to a 384 well plate containing 0.1 μL of varying concentrations of test compound in DMSO. The plates were incubated for 15 min at 37° C./5% CO2. 20 μl of diluted ImmunoCult™ (STEMCELL Technologies, 1:12.5 in T cell assay media) were added to all wells of the plate (1:50 final assay concentration). The plates were incubated for an additional 20 to 24 hrs at 37° C./5% CO2. The plates were centrifuged at 300×g for 10 minutes. 16 μL of supernatant was removed and combined with 4 μl of IL-2 HTRF Abs. (cisbio kit). Plates were incubated for 3 hours at RT and read with an EnVision plate reader at 665 nm and 615 nm wavelengths. The concentrations and resulting effect values for the tested compound were plotted and the concentration of compound required for 50% effect (IC50) was determined with the four-parameter logistic dose response equation.

IL-2-Inducible T-Cell Kinase (ITK), sequence (Q08881 whole entry): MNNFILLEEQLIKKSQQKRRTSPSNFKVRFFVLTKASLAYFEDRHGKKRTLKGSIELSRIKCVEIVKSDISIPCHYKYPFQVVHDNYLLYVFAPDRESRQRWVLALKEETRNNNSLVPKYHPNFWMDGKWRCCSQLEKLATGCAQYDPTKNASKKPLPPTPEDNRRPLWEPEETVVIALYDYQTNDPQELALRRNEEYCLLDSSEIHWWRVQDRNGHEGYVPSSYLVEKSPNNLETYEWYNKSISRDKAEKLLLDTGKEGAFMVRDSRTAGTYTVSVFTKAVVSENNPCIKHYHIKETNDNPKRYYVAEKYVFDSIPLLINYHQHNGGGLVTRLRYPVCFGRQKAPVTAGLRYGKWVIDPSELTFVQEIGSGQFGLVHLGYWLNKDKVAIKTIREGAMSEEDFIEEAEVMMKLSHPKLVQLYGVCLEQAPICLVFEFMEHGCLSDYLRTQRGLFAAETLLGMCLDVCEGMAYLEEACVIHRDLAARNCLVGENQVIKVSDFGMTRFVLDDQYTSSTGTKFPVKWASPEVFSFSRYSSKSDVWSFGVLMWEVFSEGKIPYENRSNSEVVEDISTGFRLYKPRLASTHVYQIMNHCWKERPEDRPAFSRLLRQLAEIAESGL

Structure (SMILES): C[C@H](C(=O)N(C)c1cnc2nc(-c3n[nH]c4c3C[C@@H]3C[C@]3(C)C4)[nH]c2c1)n1cccn1 [Example 8, (R)-N-Methyl-N-(2-((4aS,5aR)-5a-methyl-1,4,4a,5,5a,6-hexahydrocyclopropa[f]indazol-3-yl)-1H-imidazo[4,5-b]pyridin-6-yl)-2-(1H-pyrazol-1-yl)propanamide]
IC50 [1]: 117 nM | IC50 [2]: 279 nM

Structure (SMILES): CN(C(=O)[C@@H](F)C1CCOCC1)c1cnc2nc(-c3n[nH]c4c3C[C@@H]3C[C@]3(C)C4)[nH]c2c1 [Example 13, (S)-2-Fluoro-N-methyl-N-(2-((4aS,5aR)-5a-methyl-1,4,4a,5,5a,6-hexahydrocyclopropa[f]indazol-3-yl)-1H-imidazo[4,5-b]pyridin-6-yl)-2-(tetrahydro-2H-pyran-4-yl)acetamide]
IC50 [1]: 102 nM | IC50 [2]: 559 nM

Structure (SMILES): C[C@@H](C(=O)N(CCO)c1cnc2[nH]c(-c3n[nH]c4c3C[C@@H]3C[C@]3(C)C4)nc2c1)N1CCOCC1 [Example 15, (S)-N-(2-Hydroxyethyl)-N-(2-((4aS,5aR)-5a-methyl-1,4,4a,5,5a,6-hexahydrocyclopropa[f]indazol-3-yl)-3H-imidazo[4,5-b]pyridin-6-yl)-2-morpholinopropanamide]
IC50 [1]: 83 nM | IC50 [2]: 1230 nM

Structure (SMILES): CC(=O)N(C)c1cnc2[nH]c(-c3n[nH]c4c3CCC(C)(C)C4)nc2c1 [Example 20, N-(2-(6,6-Dimethyl-4,5,6,7-tetrahydro-1H-indazol-3-yl)-3H-imidazo[4,5-b]pyridin-6-yl)-N-methylacetamide]
IC50 [1]: 231 nM | IC50 [2]: 1200 nM

Structure (SMILES): CC(=O)N(C)c1cnc2[nH]c(-c3n[nH]c4c3C[C@@H]3C[C@]3(C)C4)nc2c1 [Example 25, N-methyl-N-(2-((4aS,5aR)-5a-Methyl-1,4,4a,5,5a,6-hexahydrocyclopropa[f]indazol-3-yl)-1H-imidazo[4,5-b]pyridin-6-yl)acetamide]
IC50 [1]: 130 nM | IC50 [2]: 709 nM

Structure (SMILES): COc1nc2[nH]c(-c3n[nH]c4c3C[C@@H]3C[C@]3(C)C4)nc2cc1N(C)C(=O)CN1CCOCC1 [Example 35, N-(5-Methoxy-2-((4aS,5aR)-5a-methyl-1,4,4a,5,5a,6-hexahydrocyclopropa[f]indazol-3-yl)-3H-imidazo[4,5-b]pyridin-6-yl)-N-methyl-2-morpholinoacetamide]
IC50 [1]: 143 nM | IC50 [2]: 462 nM

Structure (SMILES): COCCOc1nc2[nH]c(-c3n[nH]c4c3C[C@@H]3C[C@]3(C)C4)nc2cc1N(C)C(=O)CN1CCOCC1 [Example 38, N-(5-(2-Methoxyethoxy)-2-((4aS,5aR)-5a-methyl-1,4,4a,5,5a,6-hexahydrocyclopropa[f]indazol-3-yl)-3H-imidazo[4,5-b]pyridin-6-yl)-N-methyl-2-morpholinoacetamide]
IC50 [1]: 152 nM | IC50 [2]: 464 nM

Structure (SMILES): COCCOc1nc2[nH]c(-c3n[nH]c4c3C[C@@H]3C[C@]3(C)C4)nc2cc1N(C)C(=O)[C@@H](C)N1CCOCC1 [Example 39, (R)-N-(5-(2-Methoxyethoxy)-2-((4aS,5aR)-5a-methyl-1,4,4a,5,5a,6-hexahydrocyclopropa[f]indazol-3-yl)-3H-imidazo[4,5-b]pyridin-6-yl)-N-methyl-2-morpholinopropanamide]
IC50 [1]: 110 nM | IC50 [2]: 461 nM

Structure (SMILES): C[C@@H](C(=O)N(C)c1cnc2[nH]c(-c3n[nH]c4c3C[C@@H]3C[C@]3(C)C4)nc2c1)N1CCCOCC1 [Example 43, (S)-N-Methyl-N-(2-((4aS,5aR)-5a-methyl-1,4,4a,5,5a,6-hexahydrocyclopropa[f]indazol-3-yl)-3H-imidazo[4,5-b]pyridin-6-yl)-2-(1,4-oxazepan-4-yl)propenamide]
IC50 [1]: 134 nM | IC50 [2]: 351 nM

Structure (SMILES): C[C@H](C(=O)N(C)c1cnc2[nH]c(-c3n[nH]c4c3C[C@@H]3C[C@]3(C)C4)nc2c1)N1CCCOCC1 [Example 44, (R)-N-Methyl-N-(2-((4aS,5aR)-5a-methyl-1,4,4a,5,5a,6-hexahydrocyclopropa[f]indazol-3-yl)-3H-imidazo[4,5-b]pyridin-6-yl)-2-(1,4-oxazepan-4-yl)propenamide]
IC50 [1]: 101 nM | IC50 [2]: 226 nM

The next compounds have a lower IC50 [1] than those just listed; values first:

IC50 [1]: 76 nM | IC50 [2]: 447 nM
Structure (SMILES): CN(C(=O)[C@H](F)C1CCOCC1)c1cnc2nc(-c3n[nH]c4c3C[C@@H]3C[C@]3(C)C4)[nH]c2c1 [Example 12, (R)-2-Fluoro-N-methyl-N-(2-((4aS,5aR)-5a-methyl-1,4,4a,5,5a,6-hexahydrocyclopropa[f]indazol-3-yl)-1H-imidazo[4,5-b]pyridin-6-yl)-2-(tetrahydro-2H-pyran-4-yl)acetamide]

IC50 [1]: 72 nM | IC50 [2]: 534 nM
Structure (SMILES): CN(C(=O)C(F)C1CCOCC1)c1cnc2nc(-c3n[nH]c4c3C[C@@H]3C[C@]3(C)C4)[nH]c2c1 (stereo partly drawn) [Example 11, 2-Fluoro-N-methyl-N-(2-((4aS,5aR)-5a-methyl-1,4,4a,5,5a,6-hexahydrocyclopropa[f]indazol-3-yl)-1H-imidazo[4,5-b]pyridin-6-yl)-2-(tetrahydro-2H-pyran-4-yl)acetamide]

IC50 [1]: 61 nM | IC50 [2]: 481 nM
Structure (SMILES): Cc1nc2[nH]c(-c3n[nH]c4c3C[C@@H]3C[C@]3(C)C4)nc2cc1N(C)C(=O)[C@H](C)N1CCOCC1 [Example 34, (S)-N-Methyl-N-(5-methyl-2-((4aS,5aR)-5a-methyl-1,4,4a,5,5a,6-hexahydrocyclopropa[f]indazol-3-yl)-3H-imidazo[4,5-b]pyridin-6-yl)-2-morpholinopropanamide]

IC50 [1]: 38 nM | IC50 [2]: 193 nM
Structure (SMILES): CCN(C(=O)[C@H](C)N1CCOCC1)c1cnc2nc(-c3n[nH]c4c3C[C@@H]3C[C@]3(C)C4)[nH]c2c1 [Example 21, (S)-N-Ethyl-N-(2-((4aS,5aR)-5a-methyl-1,4,4a,5,5a,6-hexahydrocyclopropa[f]indazol-3-yl)-1H-imidazo[4,5-b]pyridin-6-yl)-2-morpholinopropanamide]

IC50 [1]: 25 nM | IC50 [2]: 117 nM
Structure (SMILES): CN(C(=O)CC1CCCC1)c1cnc2nc(-c3n[nH]c4c3C[C@@H]3C[C@]3(C)C4)[nH]c2c1 [Example 45, 2-Cyclopentyl-N-methyl-N-(2-((4aS,5aR)-5a-methyl-1,4,4a,5,5a,6-hexahydrocyclopropa[f]indazol-3-yl)-1H-imidazo[4,5-b]pyridin-6-yl)acetamide]

IC50 [1]: 24 nM | IC50 [2]: 147 nM
Structure (SMILES): CC(C(=O)N(C)c1cnc2[nH]c(-c3n[nH]c4c3C[C@@H]3C[C@]3(C)C4)nc2c1)C1CCOCC1 (stereo partly drawn) [Example 9, N-Methyl-N-(2-((4aS,5aR)-5a-methyl-1,4,4a,5,5a,6-hexahydrocyclopropa[f]indazol-3-yl)-3H-imidazo[4,5-b]pyridin-6-yl)-2-(tetrahydro-2H-pyran-4-yl)propanamide]
